From patent US20260130907A1 (DANA-FARBER CANCER INSTITUTE, INC., priority 2022, published 2026)
Values after ≈ are worked out from the molar mass of the structure shown. Where two headings read alike, the source gives them in different places.

Assays:
B cell lymphoma 6 (BCL6) = biological target: T1, B cell lymphoma 6 (BCL6) (Homo sapiens, UniProt P41182); assay: HiBiT cellular degradation assay in SU-DHL-4 cells; assay type: cell-based; details: for DC50: concentration to reach 50% degradation of endogenous SmBiT-tagged BCL6, SU-DHL-4 cells, 24 hours of compound treatment
T1 construct: Endogenous B cell lymphoma 6 (BCL6) was tagged with the 11-amino acid Small BiT (SmBiT); endogenous in cells; host or cells: SU-DHL-4 (CRISPR/Cas9 knock-in, single cell clone)
Protocol: DC50 (concentration to reach 50% degradation) values were determined from a cellular degradation assay (HiBiT, Promega™) in Su-DHL-4 cells (Table 1). Endogenous B cell lymphoma 6 (BCL6) was tagged with the 11-amino acid Small BiT (SmBiT) through clustered regularly interspaced short palindromic repeats (CRISPR)/CRISPR-associated protein 9 (Cas9) gene editing and single cell clone selection. After 24 hours of compound treatment, cells were lysed and incubated with Large BiT (LgBiT) protein to reconstitute intact nanoluciferase. Substrate was then added and relative luciferase units were measured. Degradation levels for each treatment were taken as a percentage compared to the control, 100% DMSO (Prism).

Kinetic solubility = assay type: physicochemical; details: kinetic from dmso stock
[1] = Metabolic stability in human liver microsome; assay type: in vitro ADME; details: pH 7.4; human liver microsomes with NADPH, 37° C., 0-60 min
Protocol: • K2HPO4 was dissolved in water to a final concentration of 50 mM, and then adjusted pH to 7.4 with HCl and filtered through a 0.22 μm filter.
• 1 mg/mL stock of terfenadine/tolbutamide with DMSO was prepared, and then made into quenching solution (5/10 ng/mL terfenadine/tolbutamide) with can.
• 10 mM test compound stock with DMSO was prepared, and then made into 200 μM working solution with DMSO.
• 10 mM control compound (dextromethorphan) stock with DMSO was prepared, and then made into 200 μM working solution with DMSO.
• Liver microsomes were thawed in 37° C. water bath, and then made into 0.63 mg/mL liver microsomes working solution with phosphate buffer.
• 5 mM NADPH working solution was prepared with phosphate buffer.
• a) 1.5 μL test compound/control compound working solution was added to 238.5 μL liver microsome (n=1). • b) The solution was pre-incubated at 37° C. for 5 min. • c) The reaction was started by adding 60 μL NADPH working solution. • d) At each time point (0, 5, 15, 30 and 60 min), 30 μL reaction mixture was removed and added to 300 μL quenching solution. • e) All samples were centrifuged at 4,000 rpm at 4° C. for 15 min, then 100 μL of supernatant was transferred with 100 μL water for LC-MS/MS analysis.

[2] = aqueous buffer, 50 mM phosphate buffer pH 7.4, 24 hours at room temperature, read-out: Kinetic solubility @pH 7.4
[3] = FaSSIF, read-out: Kinetic solubility (FaSSIF)
[4] = FeSSIF, read-out: Kinetic solubility (FeSSIF)

Row | DC50 (B cell lymphoma 6 (BCL6)) | solubility kinetic at 24 h (Kinetic solubility; [2]) | microsomal CLint at 1 µM [1] | solubility kinetic at 24 h (Kinetic solubility; [3]) | solubility kinetic at 24 h (Kinetic solubility; [4]) | BCL6 degrader status (in words) (B cell lymphoma 6 (BCL6); conclusion drawn from Table 1) | SMILES
1 | 105 nM | 266 µM (≈ 139 µg/mL) | < 6.1 µL/min/mg | – | – | – | C[C@@H]1CN(c2ncc(Cl)c(Nc3ccc4c(c3)n(CCC(C)(C)O)c(=O)n4C)n2)C[C@H](CN)C1(F)F (single isomer, unassigned) [Compound 2a]
2 | 2 nM | < 1.56 µM | < 6.1 µL/min/mg | 6.35 µM (≈ 3.49 µg/mL) | 113 µM (≈ 62.2 µg/mL) | – | CNC(=O)COc1cc2cc(Nc3nc(N4C[C@H](CCN)C(F)(F)[C@H](C)C4)ncc3Cl)ccc2n(C)c1=O (single isomer, unassigned) [Compound 51a]
3 | 5 nM | < 1.56 µM | 23.8 µL/min/mg | 2.97 µM (≈ 1.44 µg/mL) | 11.3 µM (≈ 5.48 µg/mL) | – | CNC(=O)COc1cc2cc(Nc3nc(N4C[C@H](C)C[C@H](C)C4)ncc3Cl)ccc2n(C)c1=O [BI-3802]
4 | – | < 1.56 µM | 12.3 µL/min/mg | 2.92 µM (≈ 1.49 µg/mL) | 216 µM (≈ 110 µg/mL) | – | C[C@@H]1CN(c2ncc(Cl)c(Nc3ccc4c(c3)n(CCC(C)(C)O)c(=O)n4C)n2)C[C@H](C)C1(F)F [CCT-369260]
5 | 5 nM | < 1.56 µM | < 3.7 µL/min/mg | < 1.56 µM | 1.82 µM (≈ 0.948 µg/mL) | – | CNC(=O)COc1cc2cc(Nc3nc(N4C[C@@H](C)C(F)(F)[C@@H](C)C4)ncc3Cl)ccc2n(C)c1=O [Cmp A]
6 | – | < 1.56 µM | 30 µL/min/mg | < 1.56 µM | 213 µM (≈ 101 µg/mL) | – | C[C@@H]1C[C@H](C)CN(c2ncc(Cl)c(Nc3ccc4c(c3)n(CCC(C)(C)O)c(=O)n4C)n2)C1 [Cmp B]
7 | 20 nM | 108 µM (≈ 55.1 µg/mL) | < 6.1 µL/min/mg | 208 µM (≈ 106 µg/mL) | 232 µM (≈ 118 µg/mL) | degraders of BCL6 | C[C@@H]1CN(c2ncc(Cl)c(Nc3ccc4c(c3)n(CCC(C)(C)O)c(=O)n4C)n2)C[C@H](N)C1(F)F [Compound 1, 5-[[2-[(3S,5R)-3-Amino-4,4-difluoro-5-methyl-1-piperidyl]-5-chloro-pyrimidin-4-yl]amino]-3-(3-hydroxy-3-methyl-butyl)-1-methyl-benzimidazol-2-one]
